Assay results: US20250382250A1, “STILBENE DERIVATIVE AS AHR AGONIST AND USE THEREOF” (NANJING GRITPHARMACO., LTD., priority 2022, published 2025)
Marks after values point to notes of the source that are not given here.

Key:
AhR = target: T1, AhR (Homo sapiens, UniProt P35869); assay: AhR agonism luciferase reporter gene assay in transfected HepG2 cells; format: cell-based; details: 16 h, ratio of treatment group to blank
T1 construct: expressed in transfected cells; host or cells: HepG2
T1 sequence (P35869 11-848): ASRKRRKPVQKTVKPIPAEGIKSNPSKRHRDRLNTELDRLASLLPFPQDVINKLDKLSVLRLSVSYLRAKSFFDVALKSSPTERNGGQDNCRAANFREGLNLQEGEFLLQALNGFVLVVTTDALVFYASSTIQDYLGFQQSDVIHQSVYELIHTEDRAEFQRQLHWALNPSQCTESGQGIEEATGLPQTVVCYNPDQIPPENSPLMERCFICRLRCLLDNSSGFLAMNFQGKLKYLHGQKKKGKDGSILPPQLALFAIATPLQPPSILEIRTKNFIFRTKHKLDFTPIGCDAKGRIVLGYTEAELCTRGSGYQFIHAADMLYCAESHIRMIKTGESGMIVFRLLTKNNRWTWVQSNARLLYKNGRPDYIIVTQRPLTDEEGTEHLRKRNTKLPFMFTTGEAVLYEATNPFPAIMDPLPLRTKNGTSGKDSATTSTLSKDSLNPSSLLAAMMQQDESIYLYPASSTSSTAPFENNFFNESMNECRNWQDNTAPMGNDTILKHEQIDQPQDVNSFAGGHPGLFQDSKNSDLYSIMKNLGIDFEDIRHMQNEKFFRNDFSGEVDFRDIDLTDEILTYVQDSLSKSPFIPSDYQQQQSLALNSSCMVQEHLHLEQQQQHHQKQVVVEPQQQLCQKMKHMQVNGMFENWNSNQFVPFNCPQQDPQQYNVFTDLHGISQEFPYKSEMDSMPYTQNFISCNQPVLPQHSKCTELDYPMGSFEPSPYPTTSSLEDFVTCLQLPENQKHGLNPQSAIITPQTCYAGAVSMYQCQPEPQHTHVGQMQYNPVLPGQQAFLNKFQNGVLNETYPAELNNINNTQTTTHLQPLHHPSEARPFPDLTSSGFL
Experimental: When the cell confluence reached 80%, the culture medium was replaced with a fresh one, and the transfection working solution was added for transfection overnight. The formula of the working solution is as follows: 1 mL of Opti-MEM+7.5 μg of pCMV-AHR+7.5 μg of pTK-3×DRE-Luc+30 μL of lipo6000. • (2) Cell plating: The transfected cells were digested, prepared into a cell suspension at a concentration of 3×10^5 cells/mL, and then plated on a 96-well plate at 100 µL/well for adherent culture overnight. • (3) Formulation
The prepared drug-containing culture media and a blank culture medium were added to the 96-well plate described above at 100 μL/well.

atopic dermatitis = assay: DNFB-induced atopic dermatitis mouse model (AD Score); format: in vivo, BALB/C mice; parameters: scale not given here; details: DNFB mice
Experimental: 56 clean-grade BALB/C mice aged 6-8 weeks were subjected to 5 days of adaptive feeding and then randomized into 7 groups of 8 mice each: • A. Blank control group • B. Modeling+solvent group • C. Modeling+blank matrix group • D. Modeling+positive drug mometasone furoate group • E. Modeling+1 wt % of benvitimod group • F. […] The animal experiments were conducted in accordance with the Experimental Animal Feeding, Management and Use Guidelines of China Pharmaceutical University and in compliance with animal study ethics and regulations. As shown in the above procedures, the solvent control or DNFB was given in the morning for modeling; from day 5, the test compound ointment was administered once every afternoon at 50 mg/dose evenly on the skin surface. The specific administration method is as shown above; Specific procedures: […] Severity of atopic dermatitis was scored using the AD Score criteria The severity of the appearance of dermatitis was evaluated based on 4 indicators: A. erythema/bleeding; B. dryness; C. effusion/crusting; D. edema.

Row | Compound | AhR receptor agonistic fold (AhR; drug concentration 0.1 μM) [fold] | AhR receptor agonistic fold (AhR; drug concentration 1 μM) [fold] | also measured
1 | Oc1cc(/C=C/c2ccccc2)cc(O)c1C1CCCC1 [Compound 1, (E)-2-cyclopentyl-5-styryl-1,3-benzenediol] | 3.1 ± 0.3 | 12.1 ± 0.4 | –
2 | O=Cc1c2[nH]c3ccccc3c2cc2[nH]c3ccccc3c12 [Reference 3#, FICZ, reference compound] | 2.3 ± 0.2 | 4.3 ± 0.2 | –
3 | Oc1cc(/C=C/c2cccc(Cl)c2)cc(O)c1C1CCCCC1 [Compound 10, (E)-2-cyclohexyl-5-(3-chlorostyryl)-1,3-benzenediol] | 4.5 ± 1.0 | 14.7 ± 2.3 | –
4 | Oc1cc(/C=C/c2ccc(F)c(F)c2F)cc(O)c1C1CCCCC1 [Compound 14, (E)-2-cyclohexyl-5-(2,3,4-trifluorostyryl)-1,3-benzenediol] | 13.1 ± 2.4 | 20.8 ± 1.4 | –
5 | Oc1cc(/C=C/c2ccccc2Cl)cc(O)c1C1CCCCC1 [Compound 9, (E)-2-cyclohexyl-5-(2-chlorostyryl)-1,3-benzenediol] | 4.9 ± 1.9 | 17.1 ± 2.5 | –
6 | Oc1cc(/C=C/c2ccc(Br)cc2)cc(O)c1C1CCCCC1 [Compound 8, (E)-2-cyclohexyl-5-(4-bromostyryl)-1,3-benzenediol] | 5.2 ± 0.2 | 11.8 ± 0.7 | –
7 | Oc1cc(/C=C/c2cccc(F)c2)cc(O)c1C1CCCC1 [Compound 16, (E)-2-cyclopentyl-5-(3-fluorostyryl)-1,3-benzenediol] | 6.0 ± 0.8 | 18.5 ± 2.9 | –
8 | Oc1cc(/C=C/c2ccc(Cl)cc2)cc(O)c1C1CCCC1 [Compound 3, (E)-2-cyclopentyl-5-(4-chlorostyryl)-1,3-benzenediol] | 4.0 ± 0.5 | 18.2 ± 0.6 | –
9 | Oc1cc(/C=C/c2ccccc2)cc(O)c1C1CCCCC1 [Compound 5, (E)-2-cyclohexyl-5-styryl-1,3-benzenediol] | 5.8 ± 0.3 | 16.6 ± 0.7 | –
10 | Oc1cc(/C=C/c2ccc(Br)cc2)cc(O)c1C1CCCC1 [Compound 4, (E)-2-cyclopentyl-5-(4-bromostyryl)-1,3-benzenediol] | 7.8 ± 0.1 | 14.4 ± 0.3 | –
11 | Oc1cc(/C=C/c2cc(F)c(F)c(F)c2)cc(O)c1C1CCCCC1 [Compound 15, (E)-2-cyclohexyl-5-(3,4,5-trifluorostyryl)-1,3-benzenediol] | 7.5 ± 1.8 | 22.2 ± 2.8 | –
12 | C[C@@H]1C[C@H]2[C@@H]3CCC4=CC(=O)C=C[C@]4(C)[C@@]3(Cl)[C@@H](O)C[C@]2(C)[C@@]1(OC(=O)c1ccco1)C(=O)CCl [Mometasone furoate, mometasone furoate, reference compound] | – | – | Back AD score (atopic dermatitis; day 0, before ointment treatment (from day 5)): 0.00 ± 0.00; Back AD score (atopic dermatitis; day 4, before ointment treatment (from day 5)): 3.50 ± 0.61; Back AD score (atopic dermatitis; day 6, ointment 50 mg once daily from day 5 (1.2 wt % 2#/6#, 1 wt % benvitimod)): 5.38 ± 1.65**^b; Back AD score (atopic dermatitis; day 8, ointment 50 mg once daily from day 5 (1.2 wt % 2#/6#, 1 wt % benvitimod)): 6.50 ± 1.22**^a; Back AD score (atopic dermatitis; day 10, ointment 50 mg once daily from day 5 (1.2 wt % 2#/6#, 1 wt % benvitimod)): 5.00 ± 1.00**^aabb
13 | Oc1cc(/C=C/c2cccc(F)c2F)cc(O)c1C1CCCCC1 [Compound 12, (E)-2-cyclohexyl-5-(2,3-difluorostyryl)-1,3-benzenediol] | 6.8 ± 0.1 | 17.1 ± 0.6 | –
14 | Oc1cc(/C=C/c2ccc(F)c(F)c2)cc(O)c1C1CCCCC1 [Compound 11, (E)-2-cyclohexyl-5-(3,4-difluorostyryl)-1,3-benzenediol] | 6.6 ± 1.6 | 20.0 ± 1.6 | –
15 | CC(C)c1c(O)cc(/C=C/c2ccc(F)cc2)cc1O [Reference 2#, reference compound] | 2.5 ± 1.1 | 7.8 ± 1.0 | –
16 | Oc1cc(/C=C/c2cc(F)cc(F)c2)cc(O)c1C1CCCCC1 [Compound 13, (E)-2-cyclohexyl-5-(3,5-difluorostyryl)-1,3-benzenediol] | 9.2 ± 1.2 | 14.6 ± 0.9 | –
17 | Oc1cc(/C=C/c2ccc(Cl)cc2)cc(O)c1C1CCCCC1 [Compound 7, (E)-2-cyclohexyl-5-(4-chlorostyryl)-1,3-benzenediol] | 5.1 ± 0.4 | 9.5 ± 0.5 | –
